In PubChem BioAssay (NCI):
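Interpolation was linear, between the two tested concentrations surrounding the appropriate level; five concentrations were tested over 48 hours in 96-well plates. GI50 = concentration required for 50% inhibition of growth. TGI is the concentration that stops growth completely.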

Experiments:
Assay in all cases: DTP human tumour cell line panel, 48 h
UO-31 renal = system: UO-31 renal
MDA-MB-231 breast = system: MDA-MB-231 breast
SW-620 colon = system: SW-620 colon
SK-MEL-5 melanoma = system: SK-MEL-5 melanoma
HT29 colon = system: HT29 colon
MALME-3M melanoma = system: MALME-3M melanoma
DMS 273 small cell lung = system: DMS 273 small cell lung
DLD-1 colon = system: DLD-1 colon
SNB-75 CNS = system: SNB-75 CNS
786-0 renal = system: 786-0 renal

Row | Compound | TGI (UO-31 renal) | TGI (MDA-MB-231 breast) | TGI (SW-620 colon) | TGI (SK-MEL-5 melanoma) | TGI (HT29 colon) | TGI (MALME-3M melanoma) | TGI (DMS 273 small cell lung) | TGI (DLD-1 colon) | TGI (SNB-75 CNS) | TGI (786-0 renal) | GI50 (MDA-MB-231 breast) | GI50 (SW-620 colon) | GI50 (SK-MEL-5 melanoma) | GI50 (DMS 273 small cell lung) | GI50 (DLD-1 colon) | GI50 (SNB-75 CNS) | GI50 (786-0 renal) | GI50 (UO-31 renal) | GI50 (HT29 colon) | GI50 (MALME-3M melanoma)
1 | Nc1ncnc2c1ncn2CC(O)C(=O)O (stereo unspecified) | > 100 µM | > 100 µM | > 100 µM | > 100 µM | > 100 µM | > 100 µM | > 100 µM | > 100 µM | > 100 µM | > 100 µM | – | – | – | – | – | – | – | – | – | –
2 | O=C1C=C[C@@]23C[C@@H](Nc4c(O)c5c6c(c42)=NCCC=6C=N5)SC3=C1 | 22.8 µM | 3.35 µM | 3.31 µM | 3.38 µM | 7.39 µM | 2.52 µM | 8.37 µM | 3.22 µM | 25.3 µM | 14.6 µM | 1.62 µM | 1.68 µM | 1.93 µM | 2.42 µM | 1.74 µM | 12 µM | 4.34 µM | – | – | –
3 | O=c1c2cccc3cccc(c4oc5c6cccc7cccc(c(=O)c5c14)c76)c32 | 23.1 µM | – | 17 µM | 22.2 µM | 19.6 µM | 17.9 µM | 17.9 µM | 30.2 µM | 21.7 µM | 15.8 µM | – | – | – | – | – | – | – | – | – | –
4 | CCCCCCCCC(=O)N(C)C1C2CN3CCC(O2)C13 (stereo unspecified) | > 100 µM | – | > 100 µM | > 100 µM | > 100 µM | > 100 µM | > 100 µM | > 100 µM | > 100 µM | > 100 µM | – | – | – | – | – | – | – | – | – | –
5 | C/C([O-])=C1\Cc2ccccc2C1=O.C/C([O-])=C1\Cc2ccccc2C1=O.CC[O-].CC[O-].[Ti+4] | 70.6 µM | 70.9 µM | > 84.9 µM | > 57.8 µM | > 100 µM | > 59.8 µM | 31.4 µM | > 100 µM | 45.9 µM | 77.6 µM | 12.9 µM | 24.8 µM | 19.3 µM | 8.38 µM | 18.7 µM | 21.6 µM | 20.8 µM | 20.2 µM | 31.9 µM | 18.8 µM
6 | O=C1/C(=C/c2ccc3c(c2)OCO3)CCC1CN1CCOCC1 (stereo unspecified) | 29.2 µM | 7.73 µM | 4.83 µM | 20.4 µM | 38.5 µM | 22.6 µM | 25.3 µM | 6.31 µM | 28.7 µM | 11.3 µM | – | – | – | – | – | – | – | – | – | –
7 | Fc1cccc2cc3ccc4cccc5ccc(c12)c3c45 | > 100 µM | – | > 100 µM | > 100 µM | > 100 µM | > 100 µM | > 100 µM | > 100 µM | > 100 µM | > 100 µM | – | – | – | – | – | – | – | – | – | –
8 | O=c1c(Sc2c(O)c3ccccc3c3ccccc3c2=O)c(O)c2ccccc2c2ccccc12 | > 100 µM | – | > 100 µM | > 100 µM | > 100 µM | > 100 µM | > 100 µM | > 100 µM | > 100 µM | > 100 µM | – | – | – | – | – | – | – | – | – | –
9 | COC(=O)C1C2C=CC(C2)C1(C(=O)OC)S(=O)CC12CCC(CC1O)C2(C)C (stereo unspecified) | > 100 µM | – | 37.6 µM | > 100 µM | > 100 µM | > 100 µM | > 100 µM | > 100 µM | > 100 µM | > 100 µM | – | – | – | – | – | – | – | – | – | –
10 | CC(=O)Nc1ccc(/C=N\N2C(=O)c3ccccc3C2=O)cc1 | > 100 µM | – | > 100 µM | > 100 µM | > 100 µM | > 100 µM | > 100 µM | > 100 µM | > 100 µM | > 100 µM | – | – | – | – | – | – | – | – | – | –
